Patent publication US20260167675A1, “VIRAL PEPTIDES AND USES THEREOF” (priority 2022, published 2026)

System: human HLA-A11
Test: Flow cytometry binding of a pan HLA-A antibody against K562/HLA-A11 cells pulsed with HBV POL606-616 peptides (peptide loading)
Type: cell-based
Conditions: maximum MFI pulsed / maximum MFI un-pulsed cells, loaded if S/N > 1.1; for S/N Peptide Concentration (33 μg/ml): K562/HLA-A11 cells pulsed with 33 μg/ml peptide; for S/N Peptide Concentration (100 μg/ml): K562/HLA-A11 cells pulsed with 100 μg/ml peptide
Protocol: The present Example was designed to assess loading of HBV POL606-616 peptides on HLA-A11 in K562 cells engineered to express human HLA-A11 (K562/HLA-A11 cells). To assess loading of HBV POL606-616 peptides on HLA-A11, K562 cells engineered to express human HLA-A11 (K562/HLA-A11 cells) were pulsed by resuspending the cells in AIM V medium (Gibco. Catalog #31035-025) at a density of 1×10^6 cells/ml followed by the addition of 10 μg/ml human β2-microglobulin (hB2M; EMID Millipore Catalog #475828) and either 100 μg/ml or 33 μg/ml of the indicated peptide (Table 14).
K562/HLA-A11 cells were then incubated overnight at 37° C. Peptide-pulsed cells were then harvested and plated in staining buffer (PBS, without Calcium and Magnesium (Corning, Reference #21-031-CV)+2% FBS (Seradigm, Lot #238B15)) at a density of 200,000 cells per well in a 96-well V-Bottom plate. Cells were incubated with three-fold serial dilutions (5.1 pM-100 nM) with a pan HLA-A antibody (Novus, Catalog #DDX0250P-100) for 30 minutes at 4° C., washed once in staining buffer, and incubated with an Alexa-647 conjugated secondary antibody (Jackson ImmunoResearch, Catalog #115-606-071) at 5 µg/ml for 30 minutes at 4° C. Cells were again washed once in staining buffer and stained with viability dye (CellTrace™ Violet Cell Proliferation Kit, Thermo-Fisher Cat #C34557) for 30 minutes at 4° C. Lastly, cells were washed once in staining buffer and fixed using a 50% solution of BD Cytofix (BD, Catalog #554655). Samples were run and analyzed on an IntelliCyt iQue flow cytometer to calculate mean fluorescence intensity (MFI) on live cells. MFI values were plotted in GraphPad Prism. The secondary antibody alone condition (i.e., no primary antibody) for each dose-response curve was also included in the analysis as a continuation of the three-fold serial dilution and was represented as the lowest dose. The signal-to-noise (S/N) was calculated by dividing the maximum MFI on the pulsed cells by the maximum MFI on un-pulsed K562/HLA-A11 cells (Table 15). Peptides were determined to load if the S/N from pulsed cells/un-pulsed cells was greater than 1.1.

Sequence	S/N Peptide Concentration (33 μg/ml)	S/N Peptide Concentration (100 μg/ml)
GSLPQEHIIQK (Hepatitis B virus) [HBV POL606-616 V4]	1.5	1.5
GSLPQEHIVQK (Hepatitis B virus) [HBV POL606-616 V1]	1.6	1.4
GTLPQEHIVHK (Hepatitis B virus) [HBV POL606-616 V2]	1.0	1.1
GTLPQEHIVQK (Hepatitis B virus) [HBV POL606-616 V3]	1.6	1.5
